Data published in patent US12226494B2, “Pharmaceutical compositions comprising Gd-complexes and polyarylene additives” (BRACCO IMAGING S.P.A., priority 2018, dated 2025).
“Also recorded” adds a separate entry of the source.

Columns and labels:
[1] = Proton Relaxation Enhancement (PRE) titration of ProHance with polyarylenes and reference compounds: Ka and Rb; type: binding; details: for Rb/r1p: adduct with ProHance relative to free ProHance; for Ka: interaction with ProHance (1 mM), Hepes/NaCl; for Ka / Rb: T = 25° C., 21.5 MHz, pH = 7.0 ± 0.1; for Rb: relaxivity of the adduct with ProHance at saturation
Protocol: (§1) This method consists in measuring the variation in the longitudinal proton Relaxation Rates (R1=1/T1) of the paramagnetic solutions upon increasing the concentration of the interacting substrate. […] To this end, solutions of the Gd-complexes (1 mM) were titrated with the polyarylenes compounds and non-hydrophobic reference compounds (in the concentration range 1-40 mM, leading to the saturation of the contrast agent), at 21.5 MHz and 298 K, in Hepes/NaCl buffer solution ([hepes]=3.8 mM, [NaCl]=150 mM) at pH 7.0-7.2.
(§2) The reproducibility of the T data was ±0.5%.
The least-squares fit of the R1 versus substrate concentration binding isotherms (FIGS. 4 and 5) enabled us to calculate the affinity constants and the relaxivities of the adducts reported in tables 2 and 3 below.
Other aromatic-containing structures, beside HPTS, were considered for the interaction.

[2] = Proton Relaxation Enhancement (PRE) titration of Gd-complexes (GBCA) with HPTS: binding parameters Ka and Rb; details: for Ka: interaction of GBCA (1 mM) with HPTS, Hepes/NaCl; for Ka / Rb: T = 25° C., 21.5 MHz, pH = 7.0 ± 0.1; for Rb: relaxivity of the adduct with HPTS at saturation
Protocol: The binding parameters Ka and Rb between the investigated Gd-complexes and the polyarylene additives were calculated by using the well-established Proton Relaxation Enhancement (PRE) technique.
This method consists in measuring the variation in the longitudinal proton Relaxation Rates (R1=1/T1) of the paramagnetic solutions upon increasing the concentration of the interacting substrate. By this method, the binding parameters Ka (the affinity constant) and Rb (the relaxivity of the resulting adducts at saturation) can be determined. To this end, solutions of the Gd-complexes (1 mM) were titrated with the polyarylenes compounds and non-hydrophobic reference compounds (in the concentration range 1-40 mM, leading to the saturation of the contrast agent), at 21.5 MHz and 298 K, in Hepes/NaCl buffer solution ([hepes]=3.8 mM, [NaCl]=150 mM) at pH 7.0-7.2.
Relaxation rates were measured on a Stelar SpinMaster Relaxometer (Stelar, Mede, PV, It) operating at 21.5 MHz by means of the inversion recovery method (16 experiments, two scans). The reproducibility of the T data was ±0.5%.
Analysis of data was carried out by using origin 9.0 software.

[3] = Longitudinal relaxivity r1p of the free Gd-complex (relaxometry, 21.5 MHz); type: physicochemical; details: T = 25° C., B0 = 21.5 MHz, pH = 7.0 ± 0.1
Protocol: as §1, §2

[4] = tested on: TS/A breast cancer cells transplanted on Balb/c mice; details: T1w MRI at 7.1T, injection of 0.15 mmol/Kg ProHance alone or with 0.45 mmol/Kg HPTS
Protocol: Mice were injected with 0.15 mmoles/kg of ProHance e 0.45 mmoles/kg of HPTS (corresponding to 150-220 μL for 20-30 g mice).
In vivo experiments were carried out on xenograpt murine models of cancer.
Female 10-12 weeks Balb/c mice (Charles River Laboratories, Calco, Italy) were inoculated subcutaneously in the flank with 0.1 mL of a suspension containing 5×10^5 TS/A mammary breast cancer cell lines (Nanni P. et al. Clin. Exp. Metastasis 1983, 1, 373-380).
For MRI acquisition, mice were anesthetized by intramuscular injection of a mixture of 20 mg/kg tiletamine/zolazepam (Zoletil 100, Virbac, Milan, Italy) 20 mg/kg plus 5 mg/kg xylazine (Rompun; Bayer, Milan, Italy). A permanent vein access was obtained by inserting a PE10 catheter into the tail vein.
MR images have been acquired, pre and post injection of GBCA, at 7.1T by using Bruker Avance 300 spectrometer equipped with a Micro 2.5 microimaging probe. Mice were injected with 0.15 mmol/Kg of ProHance followed (after 1 h when the wash-out of the GBCA was considered complete) by the injection of a mixture of ProHance and HPTS (0.15 mmol/Kg ProHance and 0.45 mmol/Kg HPTS).
Tumor volume and morphology were determined by multislices anatomical T2w images. A ROI was manually drawn and the slice volume was calculated. […]

[5] = 1H NMRD profiles of ProHance free and in the presence of 40 mM HPTS; type: physicochemical; details: 1 mM ProHance with 40 mM HPTS vs ProHance as-such; 298 K; 0.01-70 MHz
Protocol: In order to investigate if the enhancement of the relaxivity is maintained at different magnetic field strength, the proton 1/T1 NMRD profiles were measured at 298 K on 1 mM ProHance solutions in the absence and in the presence of 40 mM HPTS. Measurements were carried out on a fast field-cycling Stelar relaxometer over a continuum of magnetic field strengths from 0.00024 to 0.47 T (corresponding to 0.01-20 MHz proton Larmor Frequency). The relaxometer operates under computer control with an absolute uncertainty in 1/T1 of ±0.1%. Additional data points in the range 21.5-70 MHz were obtained on the Stelar SpinMaster relaxometer. The concentration of the solutions used for the relaxometric characterization was determined according to a previously reported relaxometric method (Arena, F. et al, Bioconjugate Chem. 2011, 22, 2625-2635).
The analysis provides the evolution of the relaxivity of the two species as a function of the magnetic field.

Row | Compound | Rb/r1p [1] | Ka [1] | Rb [1] [mM⁻¹ s⁻¹] | Ka [2] | further results
1 | O=S(=O)(O)c1cc(S(=O)(=O)O)c2ccc3c(O)cc(O)c4ccc1c2c43 [HPDS, 6,8-Dihydroxypyrene-1,3-disulfonic acid] | 2.4 | 124 M⁻¹ | 10.9 | – | –
2 | O=C(O)CN1CCN(CC(=O)O)CCN(C(CO)C(O)CO)CCN(CC(=O)O)CC1 (stereo not shown) [Gadovist, Gadobutrol] | – | – | – | 1157 M⁻¹ | Rb [2]: 7.9 mM⁻¹ s⁻¹; r1p [3]: 5.0 mM⁻¹ s⁻¹
3 | CNC[C@H](O)[C@@H](O)[C@H](O)[C@H](O)CO.CNC[C@H](O)[C@@H](O)[C@H](O)[C@H](O)CO.O=C([O-])CN(CCN(CC(=O)[O-])CC(=O)O)CCN(CC(=O)[O-])CC(=O)O.[Gd+3] [Magnevist] | – | – | – | no binding is observed; also recorded: No interaction | –
4 | O=C(O)COc1cc(S(=O)(=O)O)c2ccc3c(S(=O)(=O)O)cc(S(=O)(=O)O)c4ccc1c2c43 [CMPTS, 8-Carboxymethoxypyrene-1,3,6-trisulfonic acid] | 1.8 | 94.2 M⁻¹ | 8.5 | – | –
5 | O=C([O-])CN1CCNCCN(CC(=O)[O-])CCN(CC(=O)[O-])CC1.[Gd+3] [Gd-DO3A] | – | – | – | 246 M⁻¹ | Rb [2]: 9.5 mM⁻¹ s⁻¹; r1p [3]: 6.2 mM⁻¹ s⁻¹
6 | O=C(O)CN1CCN(CC(=O)O)CCN(CC(=O)O)CCN(CC(=O)O)CC1 [Dotarem] | – | – | – | 174 M⁻¹ | Rb [2]: 7.4 mM⁻¹ s⁻¹; r1p [3]: 4.2 mM⁻¹ s⁻¹
7 | O=S(=O)(O)c1cc(O)c2ccc3c(S(=O)(=O)O)cc(S(=O)(=O)O)c4ccc1c2c34 [HPTS, 8-Hydroxypyrene-1,3,6-trisulfonic acid] | 1.5 | 628 M⁻¹ | 6.9 | – | –
8 | Nc1cc(S(=O)(=O)O)c2ccc3c(S(=O)(=O)O)cc(S(=O)(=O)O)c4ccc1c2c43 [APTS, 8-Aminopyrene-1,3,6 trisulfonic acid] | 1.6 | 319 M⁻¹ | 7.6 | – | –
9 | CNC(=O)CN(CCN(CCN(CC(=O)[O-])CC(=O)NC)CC(=O)[O-])CC(=O)[O-].[Gd+3] [Omniscan] | – | – | – | no binding is observed; also recorded: No interaction | –
10 | O=S(=O)(O)c1ccc2cc(S(=O)(=O)O)ccc2c1 [2,6 NDS, 2,6 Naphthalene disulphonic acid] | 1.2 | 94.4 M⁻¹ | 5.4 | – | –
11 | O=S(=O)(O)c1cc(S(=O)(=O)O)c2ccc3c(S(=O)(=O)O)cc(S(=O)(=O)O)c4ccc1c2c43 [PTS, 1,3,6,8 Pyrenetetrasulfonic acid] | 1.6 | 177 M⁻¹ | 7.3 | – | –
12 | CC(O)CN1CCN(CC(=O)O)CCN(CC(=O)O)CCN(CC(=O)O)CC1 (stereo not shown) [ProHance] | – | – | – | 628 M⁻¹ | improvement of the relaxivity shown by the free complex ([2]; 20% of the complex in the form of a non-covalent adduct with HPTS): about 10%; improvement of the relaxivity shown by the free complex ([2]; 60% of the complex in the form of a non-covalent adduct with HPTS): ~30%; improvement of the relaxivity shown by the free complex ([2]; 99% of the complex in the form of a non-covalent adduct with HPTS): ~50%; improvement of relaxivity in comparison with Prohance as-such ([2]; molar ratio 1:3 of Prohance to HTPS): about 30%; Rb [2]: 6.9 mM⁻¹ s⁻¹; mean signal enhancement, Enh %, in the tumor ROI [4]: 53%; r1p [3]: 4.6 mM⁻¹ s⁻¹; improvement of the relaxivity as a function of the magnetic field (NMRD profile) [5]: maintained over the whole range of magnetic field
13 | O=S(=O)(O)c1ccc(O)cc1 [HBSA, 4-Hydroxybenzenesulfonic acid] | – | No binding; also recorded: No interaction | – | – | –
14 | COc1cc(S(=O)(=O)O)c2ccc3c(S(=O)(=O)O)cc(S(=O)(=O)O)c4ccc1c2c43 [MPTS, 8-Methoxy-1,3,6 pyrene trisulfonic acid] | 1.4 | 514 M⁻¹ | 6.5 | – | –
15 | O=S(=O)(O)c1cccc2c(S(=O)(=O)O)cccc12 [1,5 NDS, 1,5 Naphthalene disulphonic acid] | 1.4 | 45.5 M⁻¹ | 6.3 | – | –
16 | CNC[C@H](O)[C@@H](O)[C@H](O)[C@H](O)CO.CNC[C@H](O)[C@@H](O)[C@H](O)[C@H](O)CO.O=C([O-])CN(CCN(CC(=O)[O-])CC(=O)O)CCN(CC(=O)O)C(COCc1ccccc1)C(=O)[O-].[Gd+3] (stereo not shown) [MultiHance, gadobenate dimeglumine] | – | – | – | no binding is observed; also recorded: No interaction | –
